Consider three compounds from patent publication US6544727B1, “Methods and devices for the removal of psoralens from blood products” (Cerus Corporation, priority 1995, dated 2003).

A short description of data set [1]: HPLC of residual S-59 and photoproducts after RD containing Dowex XUS-43493 (Table N). The format is physicochemical. On the procedure: […] The unbound photoproducts can be monitored and quantified using a standard HPLC assay.
Samples were prepared for HPLC analysis according to the general procedure described in Example 39, infra. Briefly, the assay involved an initial sample preparation which lyses the platelets and solubilizes the S-59 and photoproducts. The supernatant from the sample preparation was then analyzed on a C-18 reverse phase column with a gradient of increasing methanol in KH2PO4 buffer. The major peaks were detected by optical absorbance.
Following illumination with 3.0 J/cm^2 UVA of a PC to which 15.2 mg S-59 had been added, the treated PC was incubated with the RD (contained within a PL 2410 Plastic container, Baxter) for 8 hours. Samples of the treated PC were then taken and subjected to HPLC for detection of residual S-59 and S-59 photoproducts. […] The Limit of Quantitation (LOQ) for the HPLC assay was 0.3 μM S-59.
The data described above indicate that the levels of residual photoproducts D and E are higher than levels of residual S-59 even thought the initial levels of D and E in the illuminated PC were much lower than S-59. […] The PC was assayed for unbound photoproducts using the HPLC assay discussed above, which quantifies the photoproducts present both within the platelets and in the plasma/PAS III mixture. […]

The test system of another data set is Pseudomonas. In words: Bacterial inactivation, colony forming units. In kind it is cell-based. The settings on record: 16 μM; 5 J/cm^2 irradiation; starting titer 6.5 logs. The method, then:
The bacteria, a strain of Pseudomonas, was inoculated into LB with a sterile loop and grown overnight in a shaker at 37° C. Based on the approximation that one OD at 610 mn is equivalent to 5×10^8 colony forming units (cfu)/mL, a 1:10 dilution of the culture was measured on a spectrophotometer, (manufactured by Shimatsu). The bacterial culture was added to a solution of 15% fetal bovine serum in DMEM to a final bacteria concentration of approximately 10^6/mL. An aliquot (0.8 mL) was transferred to a 1.5 mL snap-top polyethylene tube. An aliquot (0.004-0.040 mL) of the test compound stock solution prepared in water, ethanol or dimethylsulfoxide at 0.80-8.0 mM was added to the tube. Compounds were tested at a concentration of 16 μM. The tubes were placed in a light device as described in EXAMPLE 1 and irradiated with 1.3 J/cm^2, 1.2 J/cm^2, and finally 2.5 J/cm^2, for a total of 5 J/cm^2. 150 μL were removed for testing after each pulse period. Sterile 13 mL dilution tubes were prepared; each test compound required one tube with 0.4 mL of LB broth and four tubes containing 0.5 mL of LB broth. […] The colony forming units were then counted the following morning and the titer of the phage remaining after phototreatment was calculated based on the dilution factors. […]

A further data set has as its system R17 bacteriophage. In words: R17 bacteriophage inactivation at constant concentration, varying doses of UV light. In kind it is cell-based. The settings on record: 1.0-3.0 J/cm^2, FIGS. 11-17. The method, then: Compounds of the present invention were also tested at a constant concentration for varying doses of UV light. Three sets of 1.5 mL tubes were prepared containing 0.6mL aliquots of R17 in DMEM (prepared as described above). The compound tested was added at the desired concentration and the samples were vortexed. The samples were then irradiated at intervals of 1.0 J/cm^2, until 3.0 J/cm^2 was reached. Between each 1.0 J/cm^2 interval, 100 μL was removed from each sample and placed in the first corresponding dilution tube, then five sequential dilutions were performed for each compound tested, at all 3 irradiation doses, as described above in this example.
Then 50 μL of Hfr 3000 bacteria was added to each tube, 3 mL of top agar was added and the tube contents were vortexed The contents of each tube was poured into its own LB plate and the plates were incubated overnight at 37° C. Plaques were counted by visual inspection the following morning.

Consider `Cc1oc2c(C)c3oc(=O)cc(C)c3cc2c1COCCN` [Compound 2, 4′-(4-amino-2-oxa)butyl-4,5′,8-trimethylpsoralen], for which the “Concentration Remaining (Average ± S.D.)” value in data set [1] (PC with 15.2 mg S-59, 3.0 J/cm^2 UVA, incubated 8 hours with RD containing Dowex XUS-43493, LOQ 0.3 μM) worked out at 270 ± 50 nM. Moreover, the “initial 15.2 mg of S-59 removed from PCs” value in data set [1] (following illumination and incubation with the RD) was “greater than 99%”.
For the compound `Cc1oc2c(C)c3oc(=O)cc(C)c3cc2c1CN` [AMT, 4′-Aminomethyl-4,5′,8-trimethylpsoralen, reference compound], in the data set on Pseudomonas, the “log kill of Pseudomonas” value was determined as 5.2 logs.
Turning to `Cc1oc2c(C)c3oc(=O)cc(C)c3cc2c1CNCCCCN` [Compound 6, 4′-(6-amino-2-aza)hexyl-4,5′,8-trimethylpsoralen], in the data set with R17 bacteriophage, the “R17 inactivation efficiency compared with AMT (in words)” value is recorded as “more efficient at inactivating R17 than was AMT”.
